Data published in patent US10172857B2, “Boosting the effect of methotrexate through the combined use with lipophilic statins” (Dalana3, S.L., priority 2013, dated 2019).

Experiments:
Assay type in all cases: cell-based, human
HOS cells [1] = assay: Apoptosis testing by flow cytometry (SubG0 peak); settings: 48 hours
osteosarcoma cells (HOS) = assay: Cell viability test, trypan blue staining and counting in Neubauer chamber; settings: for morphological changes: 0.5 μM simvastatin, 50 nM methotrexate or both, 48 and 72 hours; for effect on cell proliferation and cell death (trypan blue counts): FIGS. 6-10
Protocol: The HOS cells are cultivated in a culture medium supplemented with 5-10% heat-inactivated foetal bovine serum and 2 mM of L-glutamine, at 37° C., 95% humidity and 5% atmospheric CO2. The cells are treated with 0.5 μM of simvastatin and with 50 nM of MTX for 24, 48 and 72 hours. The cells are collected by trypsinization. This involves first aspirating the cultivation medium; the cells are then washed with 2-3 mL of PBS (sterile); add 0.5-1 mL of trypsin-EDTA solution (sterile); incubated at 37° for 5 minutes; the cells are collected with 5 mL of fresh culture medium; and the suspension is placed in a sterile 15 mL tube. The trypan blue dye is used in order to determine cell viability. Trypan blue is a colloid that enters the cells through breaks in the cell membrane. Therefore, the cells that appear in the image, clearly stained blue, are considered to be non-viable. For the measurement, mix 50 μL of the trypan blue solution and 50 μL of cell suspension are placed in a 1.5 mL tube. The mixture is homogenised and 10 μL placed in a Neubauer chamber. The total cells and the non-viable cells (completely stained blue) are counted.

HOS cells [2] = assay: Analysis of the cell cycle by flow cytometry (PI); settings: for changes in the distribution of the cell cycle (summary): FIGS. 11-15; for changes in the cell cycle with increasing doses: MTX 10-200 nM or SV 0.2-10 μM
Protocol: In order to analyse the changes in the distribution of the cell cycle the cells are seeded and treated under the same conditions employed with the Annexin V dye. The treated and untreated cells are resuspended in NP-40 at 1% dissolved in PBS additionally containing 50 μg/mL PI at a density of 3×10^5 cells/sample. The analysis and quantification of each of the experimental conditions is then carried out after 15 minutes incubation in the dark and at ambient temperature, following the same methodology as employed in the apoptosis experiments with Annexin-V staining (FACSCalibur flow cytometry and Cell Quest software).

[3] = HOS cells, SV 1 μM alone, 24 hours

Row | SMILES | MTX concentration at incipient appearance of the SubG0 peak (cell death by apoptosis) (HOS cells [1]; MTX 10-200 nM tested) | number of cells quantified in the SubG0 phase (HOS cells [1]; doses above 50 nM of MTX) | morphological changes (osteosarcoma cells (HOS)) | effect on cell proliferation and cell death (trypan blue counts) (osteosarcoma cells (HOS)) | changes in the distribution of the cell cycle (summary) (HOS cells [2]) | changes in the cell cycle with increasing doses (HOS cells [2]; HOS cells, 24 hours) | SV concentration at appearance of the SubG0 peak (cell death by apoptosis) (HOS cells [1]; SV 0.2-10 μM tested) | SV concentration at maximum of the SubG0 peak (HOS cells [1]; SV 0.2-10 μM tested) | number of cells quantified in the SubG0 phase (HOS cells [1]; doses above 0.2 μM SV) | decrease of the G1 phase compared to the control (HOS cells [2]; [3]) | increase of cells in the G2/M phase compared to the control (HOS cells [2]; [3])
1 | CN(Cc1cnc2nc(N)nc(N)c2n1)c1ccc(C(=O)N[C@@H](CCC(=O)O)C(=O)O)cc1 [MTX, (2S)-2-[(4-{[(2,4-diaminopteridin-6-yl)methyl](methyl)amino}benzoyl)amino]pentanedioic acid] | 20 NM | significant increase | enlarged cells and even those with two nuclei | preferentially acts to slow cell proliferation | halt in the cycle in phase G1 | decrease in the S phase and in the number of cells in phase G2/M, with subsequent accumulation in the phase G1 | – | – | – | – | –
2 | CCC(C)(C)C(=O)O[C@H]1C[C@@H](C)C=C2C=C[C@H](C)[C@H](CC[C@@H]3C[C@@H](O)CC(=O)O3)[C@H]21 [SV, simvastatin] | – | – | rounded cells | predominant effect on the induction of cell death | halts the cycle in phase G2/M | decrease in the S phase and in the number of cells in phase G1 is notable, with subsequent accumulation in the phase G2/M | < 0.2 µM | 10 µM | notable increase | 19.60% | 40.92%
